Data from the supplement of paper PMC10307832.

Tests used:
Assay in all cases: relative viability (nuclei count vs DMSO), 5 days (fraction); higher = more cells survive
Shikonin + Dasatinib = compound: CC(C)=CC[C@@H](O)C1=CC(=O)c2c(O)ccc(O)c2C1=O [Shikonin] + Cc1nc(Nc2ncc(C(=O)Nc3c(C)cccc3Cl)s2)cc(N2CCN(CCO)CC2)n1 [Dasatinib] (partner 0.075 µM)
Outline: (§1)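 Relative viability is defined as nuclei in treated wells over nuclei in vehicle wells. Duplicate plates were run and medians reported. Lung cancer cell lines in 1536-well plates were dosed by pin tool one day after seeding, with one drug or with a fixed anchor-drug dose plus five library-drug doses (not always all listed) in √10 steps, and nuclei were counted after 5 days.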

[1] = compound: CC(C)N(CCCNC(=O)Nc1ccc(C(C)(C)C)cc1)C[C@H]1O[C@@H](n2ccc3c(N)ncnc32)[C@H](O)[C@@H]1O + CC(=O)Nc1cccc(-n2c(=O)n(C3CC3)c(=O)c3c(Nc4ccc(I)cc4F)n(C)c(=O)c(C)c32)c1 [Trametinib] (partner 0.02 µM)
Outline: as §1

[2] = compound: CC(C)N(CCCNC(=O)Nc1ccc(C(C)(C)C)cc1)C[C@H]1O[C@@H](n2ccc3c(N)ncnc32)[C@H](O)[C@@H]1O + COc1cc2c(Oc3ccc(NC(=O)C4(C(=O)Nc5ccc(F)cc5)CC4)cc3F)ccnc2cc1OCCCN1CCOCC1 [Foretinib] (partner 0.25 µM)
Outline: as §1

[3] = compound: CC(C)N(CCCNC(=O)Nc1ccc(C(C)(C)C)cc1)C[C@H]1O[C@@H](n2ccc3c(N)ncnc32)[C@H](O)[C@@H]1O + CS(=O)(=O)N1CCN(Cc2cc3nc(-c4cccc5[nH]ncc45)nc(N4CCOCC4)c3s2)CC1 [Pictilisib] (partner 1 µM)
Outline: as §1

LCLC-103H
relative viability (Shikonin + Dasatinib; first compound 0.01 µM): 0.499 | relative viability (Shikonin + Dasatinib; first compound 0.1 µM): 0.462 | relative viability (Shikonin + Dasatinib; first compound 0.3162 µM): 0.549 | relative viability (Shikonin + Dasatinib; first compound 1 µM): 0.586 | relative viability ([1]; first compound 0.08 µM): 0.679 | relative viability ([1]; first compound 0.253 µM): 0.708 | relative viability ([1]; first compound 0.8 µM): 0.662 | relative viability ([1]; first compound 2.53 µM): 0.653 | relative viability ([1]; first compound 8 µM): 0.679 | relative viability ([2]; first compound 0.08 µM): 0.704 | relative viability ([2]; first compound 0.253 µM): 0.744 | relative viability ([2]; first compound 0.8 µM): 0.717 | relative viability ([2]; first compound 2.53 µM): 0.627 | relative viability ([2]; first compound 8 µM): 0.71 | relative viability ([3]; first compound 0.08 µM): 0.639 | relative viability ([3]; first compound 0.253 µM): 0.522 | relative viability ([3]; first compound 0.8 µM): 0.703 | relative viability ([3]; first compound 2.53 µM): 0.551 | relative viability ([3]; first compound 8 µM): 0.716

SK-LU-1
relative viability (Shikonin + Dasatinib; first compound 0.01 µM): 0.164 | relative viability (Shikonin + Dasatinib; first compound 0.1 µM): 0.191 | relative viability (Shikonin + Dasatinib; first compound 0.3162 µM): 0.182 | relative viability (Shikonin + Dasatinib; first compound 1 µM): 0.186 | relative viability ([1]; first compound 0.08 µM): 0.567 | relative viability ([1]; first compound 0.253 µM): 0.469 | relative viability ([1]; first compound 0.8 µM): 0.513 | relative viability ([1]; first compound 2.53 µM): 0.501 | relative viability ([1]; first compound 8 µM): 0.428 | relative viability ([2]; first compound 0.08 µM): 0.904 | relative viability ([2]; first compound 0.253 µM): 0.919 | relative viability ([2]; first compound 0.8 µM): 0.898 | relative viability ([2]; first compound 2.53 µM): 0.911 | relative viability ([2]; first compound 8 µM): 0.754 | relative viability ([3]; first compound 0.08 µM): 0.593 | relative viability ([3]; first compound 0.253 µM): 0.506 | relative viability ([3]; first compound 0.8 µM): 0.621 | relative viability ([3]; first compound 2.53 µM): 0.662 | relative viability ([3]; first compound 8 µM): 0.538

BEN
relative viability (Shikonin + Dasatinib; first compound 0.01 µM): 0.302 | relative viability (Shikonin + Dasatinib; first compound 0.1 µM): 0.407 | relative viability (Shikonin + Dasatinib; first compound 0.3162 µM): 0.303 | relative viability (Shikonin + Dasatinib; first compound 1 µM): 0.386 | relative viability ([1]; first compound 0.08 µM): 1.01 | relative viability ([1]; first compound 0.253 µM): 0.92 | relative viability ([1]; first compound 0.8 µM): 0.96 | relative viability ([1]; first compound 2.53 µM): 1.26 | relative viability ([1]; first compound 8 µM): 1.08 | relative viability ([2]; first compound 0.08 µM): 0.629 | relative viability ([2]; first compound 0.253 µM): 0.935 | relative viability ([2]; first compound 0.8 µM): 0.689 | relative viability ([2]; first compound 2.53 µM): 0.567 | relative viability ([2]; first compound 8 µM): 0.697 | relative viability ([3]; first compound 0.08 µM): 0.606 | relative viability ([3]; first compound 0.253 µM): 0.497 | relative viability ([3]; first compound 0.8 µM): 0.586 | relative viability ([3]; first compound 2.53 µM): 0.588 | relative viability ([3]; first compound 8 µM): 0.586

NCI-H1666
relative viability (Shikonin + Dasatinib; first compound 0.01 µM): 0.809 | relative viability (Shikonin + Dasatinib; first compound 0.1 µM): 0.873 | relative viability (Shikonin + Dasatinib; first compound 0.3162 µM): 0.882 | relative viability (Shikonin + Dasatinib; first compound 1 µM): 0.857 | relative viability ([1]; first compound 0.08 µM): 0.772 | relative viability ([1]; first compound 0.253 µM): 0.814 | relative viability ([1]; first compound 0.8 µM): 0.804 | relative viability ([1]; first compound 2.53 µM): 0.86 | relative viability ([1]; first compound 8 µM): 0.764 | relative viability ([2]; first compound 0.08 µM): 0.976 | relative viability ([2]; first compound 0.253 µM): 0.949 | relative viability ([2]; first compound 0.8 µM): 1.03 | relative viability ([2]; first compound 2.53 µM): 0.938 | relative viability ([2]; first compound 8 µM): 0.92 | relative viability ([3]; first compound 0.08 µM): 0.354 | relative viability ([3]; first compound 0.253 µM): 0.405 | relative viability ([3]; first compound 0.8 µM): 0.39 | relative viability ([3]; first compound 2.53 µM): 0.405 | relative viability ([3]; first compound 8 µM): 0.355

LC-2-ad
relative viability (Shikonin + Dasatinib; first compound 0.01 µM): 0.528 | relative viability (Shikonin + Dasatinib; first compound 0.1 µM): 0.586 | relative viability (Shikonin + Dasatinib; first compound 0.3162 µM): 0.418 | relative viability (Shikonin + Dasatinib; first compound 1 µM): 0.893 | relative viability ([1]; first compound 0.08 µM): 0.848 | relative viability ([1]; first compound 0.253 µM): 0.936 | relative viability ([1]; first compound 0.8 µM): 0.895 | relative viability ([1]; first compound 2.53 µM): 0.917 | relative viability ([1]; first compound 8 µM): 0.855 | relative viability ([2]; first compound 0.08 µM): 0.895 | relative viability ([2]; first compound 0.253 µM): 0.9 | relative viability ([2]; first compound 0.8 µM): 0.894 | relative viability ([2]; first compound 2.53 µM): 0.899 | relative viability ([2]; first compound 8 µM): 0.9 | relative viability ([3]; first compound 0.08 µM): 0.612 | relative viability ([3]; first compound 0.253 µM): 0.518 | relative viability ([3]; first compound 0.8 µM): 0.413 | relative viability ([3]; first compound 2.53 µM): 0.511 | relative viability ([3]; first compound 8 µM): 0.427

Calu-6
relative viability ([2]; first compound 0.08 µM): 0.847 | relative viability ([2]; first compound 0.253 µM): 0.872 | relative viability ([2]; first compound 0.8 µM): 0.923 | relative viability ([2]; first compound 2.53 µM): 0.839 | relative viability ([2]; first compound 8 µM): 0.823 | relative viability ([3]; first compound 0.08 µM): 0.929 | relative viability ([3]; first compound 0.253 µM): 0.91 | relative viability ([3]; first compound 0.8 µM): 0.971 | relative viability ([3]; first compound 2.53 µM): 0.922 | relative viability ([3]; first compound 8 µM): 0.882

NCI-H1648
relative viability ([1]; first compound 0.08 µM): 0.424 | relative viability ([1]; first compound 0.253 µM): 0.522 | relative viability ([1]; first compound 0.8 µM): 0.406 | relative viability ([1]; first compound 2.53 µM): 0.419 | relative viability ([1]; first compound 8 µM): 0.455

EBC-1
relative viability ([2]; first compound 0.08 µM): 0.108 | relative viability ([2]; first compound 0.253 µM): 0.098 | relative viability ([2]; first compound 0.8 µM): 0.1 | relative viability ([2]; first compound 2.53 µM): 0.0973 | relative viability ([2]; first compound 8 µM): 0.121 | relative viability ([3]; first compound 0.08 µM): 0.334 | relative viability ([3]; first compound 0.253 µM): 0.386 | relative viability ([3]; first compound 0.8 µM): 0.338 | relative viability ([3]; first compound 2.53 µM): 0.399 | relative viability ([3]; first compound 8 µM): 0.347

NCI-H1299
relative viability ([2]; first compound 0.08 µM): 1.05 | relative viability ([2]; first compound 0.253 µM): 1.08 | relative viability ([2]; first compound 0.8 µM): 1.08 | relative viability ([2]; first compound 2.53 µM): 1.1 | relative viability ([2]; first compound 8 µM): 1.01 | relative viability ([3]; first compound 0.08 µM): 0.944 | relative viability ([3]; first compound 0.253 µM): 0.834 | relative viability ([3]; first compound 0.8 µM): 0.912 | relative viability ([3]; first compound 2.53 µM): 0.76 | relative viability ([3]; first compound 8 µM): 0.726

NCI-H2342
relative viability (Shikonin + Dasatinib; first compound 0.01 µM): 0.334 | relative viability (Shikonin + Dasatinib; first compound 0.1 µM): 0.314 | relative viability (Shikonin + Dasatinib; first compound 0.3162 µM): 0.295 | relative viability (Shikonin + Dasatinib; first compound 1 µM): 0.325 | relative viability ([1]; first compound 0.08 µM): 0.781 | relative viability ([1]; first compound 0.253 µM): 0.81 | relative viability ([1]; first compound 0.8 µM): 0.692 | relative viability ([1]; first compound 2.53 µM): 0.656 | relative viability ([1]; first compound 8 µM): 0.826 | relative viability ([2]; first compound 0.08 µM): 0.931 | relative viability ([2]; first compound 0.253 µM): 0.9 | relative viability ([2]; first compound 0.8 µM): 0.9 | relative viability ([2]; first compound 2.53 µM): 1.21 | relative viability ([2]; first compound 8 µM): 1

IA-LM
relative viability ([2]; first compound 0.08 µM): 1.01 | relative viability ([2]; first compound 0.253 µM): 1.28 | relative viability ([2]; first compound 0.8 µM): 1.14 | relative viability ([2]; first compound 2.53 µM): 1.2 | relative viability ([2]; first compound 8 µM): 0.99 | relative viability ([3]; first compound 0.08 µM): 0.27 | relative viability ([3]; first compound 0.253 µM): 0.347 | relative viability ([3]; first compound 0.8 µM): 0.447 | relative viability ([3]; first compound 2.53 µM): 0.398 | relative viability ([3]; first compound 8 µM): 0.378
